{"source": "patent US12714683B2", "about": "“Treatment of CNS disorders with sleep disturbances” (University of Copenhagen, priority 2019, dated 2026)", "key": {"CaMK2a [1]": {"target": "CaMK2a (Homo sapiens, UniProt Q9UQM7)", "sequence (Q9UQM7 whole entry)": "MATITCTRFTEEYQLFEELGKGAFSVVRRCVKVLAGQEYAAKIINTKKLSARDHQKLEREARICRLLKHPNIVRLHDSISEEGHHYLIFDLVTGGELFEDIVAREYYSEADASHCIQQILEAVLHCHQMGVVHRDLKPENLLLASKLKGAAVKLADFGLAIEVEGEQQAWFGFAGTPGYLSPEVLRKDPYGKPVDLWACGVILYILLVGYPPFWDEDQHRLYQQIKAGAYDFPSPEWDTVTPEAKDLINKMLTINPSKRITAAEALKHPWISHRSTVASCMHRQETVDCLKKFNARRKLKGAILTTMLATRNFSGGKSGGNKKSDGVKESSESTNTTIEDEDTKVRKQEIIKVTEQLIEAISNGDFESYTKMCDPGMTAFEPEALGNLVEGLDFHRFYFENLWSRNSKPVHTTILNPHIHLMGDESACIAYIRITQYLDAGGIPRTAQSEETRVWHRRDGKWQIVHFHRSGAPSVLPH", "details": "cited from earlier work"}, "GABAB receptors": {"target": "GABAB receptors (Homo sapiens, UniProt Q9UBS5)", "sequence (Q9UBS5 15-961 limits assumed)": "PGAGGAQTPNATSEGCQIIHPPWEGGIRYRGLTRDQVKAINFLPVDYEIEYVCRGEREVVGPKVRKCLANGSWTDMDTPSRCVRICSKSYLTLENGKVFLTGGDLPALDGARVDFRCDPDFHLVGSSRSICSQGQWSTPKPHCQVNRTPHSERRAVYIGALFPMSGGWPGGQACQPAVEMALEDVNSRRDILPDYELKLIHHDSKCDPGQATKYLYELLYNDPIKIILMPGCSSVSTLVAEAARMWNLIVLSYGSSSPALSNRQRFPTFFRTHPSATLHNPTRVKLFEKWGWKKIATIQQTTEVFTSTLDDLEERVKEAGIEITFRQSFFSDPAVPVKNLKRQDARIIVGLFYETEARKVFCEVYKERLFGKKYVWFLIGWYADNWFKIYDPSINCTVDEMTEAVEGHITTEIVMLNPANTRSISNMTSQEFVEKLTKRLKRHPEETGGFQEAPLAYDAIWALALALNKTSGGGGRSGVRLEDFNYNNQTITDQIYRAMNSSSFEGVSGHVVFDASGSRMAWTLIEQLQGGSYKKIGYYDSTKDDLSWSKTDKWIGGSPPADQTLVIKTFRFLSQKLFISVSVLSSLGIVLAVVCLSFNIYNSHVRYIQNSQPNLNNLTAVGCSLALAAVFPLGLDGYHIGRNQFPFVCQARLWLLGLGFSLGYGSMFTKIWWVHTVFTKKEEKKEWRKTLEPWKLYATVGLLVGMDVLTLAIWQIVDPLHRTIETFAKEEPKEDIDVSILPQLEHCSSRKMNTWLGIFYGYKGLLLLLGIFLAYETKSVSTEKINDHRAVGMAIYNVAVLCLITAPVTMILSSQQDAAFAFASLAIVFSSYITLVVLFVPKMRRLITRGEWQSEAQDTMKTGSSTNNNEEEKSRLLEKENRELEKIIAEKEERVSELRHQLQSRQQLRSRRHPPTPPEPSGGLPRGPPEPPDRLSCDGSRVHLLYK", "sequence (O75899 42-941 partner)": "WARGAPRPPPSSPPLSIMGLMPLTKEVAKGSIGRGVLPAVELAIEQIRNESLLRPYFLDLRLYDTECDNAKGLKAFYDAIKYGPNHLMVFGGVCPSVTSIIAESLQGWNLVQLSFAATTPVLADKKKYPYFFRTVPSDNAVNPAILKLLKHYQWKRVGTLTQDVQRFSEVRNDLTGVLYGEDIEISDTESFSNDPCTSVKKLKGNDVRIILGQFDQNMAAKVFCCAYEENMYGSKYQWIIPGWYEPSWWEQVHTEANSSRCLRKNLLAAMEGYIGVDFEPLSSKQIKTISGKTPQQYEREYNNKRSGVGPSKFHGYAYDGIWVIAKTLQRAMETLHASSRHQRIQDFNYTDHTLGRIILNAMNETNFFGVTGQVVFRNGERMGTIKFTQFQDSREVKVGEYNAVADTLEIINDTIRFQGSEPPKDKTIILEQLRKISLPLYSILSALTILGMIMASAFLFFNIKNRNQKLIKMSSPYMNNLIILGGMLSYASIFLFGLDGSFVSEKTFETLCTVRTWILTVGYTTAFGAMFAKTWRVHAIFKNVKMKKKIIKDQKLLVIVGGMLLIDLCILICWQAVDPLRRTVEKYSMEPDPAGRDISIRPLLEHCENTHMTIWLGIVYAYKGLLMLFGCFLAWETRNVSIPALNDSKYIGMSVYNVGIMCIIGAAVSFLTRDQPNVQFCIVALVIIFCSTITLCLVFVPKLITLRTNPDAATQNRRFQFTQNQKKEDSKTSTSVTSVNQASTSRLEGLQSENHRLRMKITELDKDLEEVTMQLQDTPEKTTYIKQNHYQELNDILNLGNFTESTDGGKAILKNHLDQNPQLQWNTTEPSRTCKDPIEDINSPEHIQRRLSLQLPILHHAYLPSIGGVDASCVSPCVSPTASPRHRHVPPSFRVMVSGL", "details": "cited from earlier work"}, "[2]": {"system": "hypocretin knock-out mouse model", "assay": "Hypocretin knock-out mouse model of narcolepsy, sleep-wake EEG/EMG and cataplexy", "type": "in vivo", "details": "for cataplexy: mixed-effects model with post hoc Sidak, FIG. 4", "description": "(§1) Using the hypocretin knock-out mouse model we determine changes in sleep-wake EEG/EMG patterns (including cataplexy) at different time points (1 day to 3 weeks) under the influence of a compound (HOCPCA) of Formula I. After drug cessation, EEG/EMG changes are then further mapped for up to 4 weeks. Under anesthesia with isoflurane (2% to 2.5% in O2) electrodes are placed in the scull and neck muscles of the mice. After 5-10 days recovery the electrodes are connected to a recording system, and EEG/EMG signals are recorded with synchronised video recordings. From the data, sleep/wake parameters and cataplexy episodes are scored and calculated (FIG. 4-5)."}, "[3]": {"system": "DTA narcolepsy mouse model", "assay": "DTA mouse model of narcolepsy, sleep-wake EEG/EMG and cataplexy", "type": "in vivo", "details": "two-way ANOVA, p=0.0017, n=5-6; FIG. 3", "description": "as §1, with “DTA narcolepsy” for “hypocretin knock-out”, “are determining” for “determine”, “sleepwake” for “sleep-wake”, “compound” for “compound (HOCPCA)”, “I (Ph-HTBA).” for “I.”, “FIG. 3).” for “(FIG. 4-5).”"}, "CaMK2a [4]": {"target": "T1, CaMK2a (Mus musculus, UniProt P11798)", "T1 construct": "mouse brains from either (Ube3a^m−/p+) or wildtype mice, were dissected, sliced on a cryostat; from tissue; host or cells: mouse brain slices (Ube3a m-/p+ and wild-type)", "T1 sequence (P11798 whole entry)": "as the sequence (Q9UQM7 whole entry) above, with S324N counted along it", "assay": "Mouse brain 3H-HOCPCA autoradiography (Angelman syndrome Ube3a m-/p+ vs wild-type brain slices)", "type": "binding", "details": "Ube3a m-/p+ (HET, Angelman syndrome) mice vs WT; 1 nM radioligand; most pronounced in hippocampus; FIG. 1"}, "rat CaMK2a": {"system": "rat CaMK2a", "assay": "3H-HOCPCA filtration binding to recombinant wild-type or mutated CaMK2a expressed in HEK293T cells", "details": "hub domain mutations Arg433Gln, Arg453Gln, Arg469Cys/Arg469Gln; HEK whole cell homogenates; expression confirmed by WB; FIG. 2", "method": "^3H-HOCPCA Binding to Recombinant CaMK2a Expressed in HEK293T Cells\nHEK293T cells were cultured using standard conditions, using Dulbecco's modified Eagle Medium with GlutaMax, 10% fetal bovine serum and 1% penicillin-streptomycin, and incubated at 37° C. in a humidified atmosphere of […] and 5% CO2. Site-directed mutagenesis was done using point mutations and performed by GenScript USA Inc. Cells were transfected with wild-type or mutated cmyc-tagged rat CaMK2a (Origene construct RR201121), using polyethimine, linear, MW 25000 (Polysciences Inc., Warrington, PA, USA). Whole cell homogenates were prepared 48 hr post-transfection by washing the cells with ice-cold 1×PBS and harvesting by scraping. Cells were collected and centrifuged for 10 min at 1000×g. Cell pellets were resuspended in ice-cold 1×PBS and homogenized using 2×1 mm zirkonium beads in a bullet blender for 20 s at max speed (NextAdvance, NY, USA). Homogenates were cleared by centrifugation (10 min, 4° C., […]). Protein concentration was determined using the Bradford protein assay. […] Nonspecific binding was determined with 1-10 mM GHB. […] The dried filters were added scintillation liquid and radioactivity measured on a Tricarb 2100 Scintillation counter (Packard). […]\nTotal expression levels of CaMK2a were assessed by Western blot with anti-myc-Alexa488 (MA1980-A488, ThermoFisher Scientific). […]"}, "[5]": {"system": "mouse model of narcolepsy type 1", "details": "Black et al. J Neurosci 2014; cited from earlier work"}}}
{"smiles": "O=C(O)CCCO", "note": "[GHB]", "values": [{"measurement": "binding affinity to specific protein in neurons (CaMK2a)", "setting": "CaMK2a [1]", "result": "high affinity (nanomolar to micromolar)"}, {"measurement": "binding affinity to GABAB receptors", "setting": "GABAB receptors", "result": "low affinity (millimolar)"}]}
{"smiles": "O=C(O)C1=CC(O)CC1", "note": "(stereo not drawn) [HOCPCA, 3-hydroxycyclopent-1-enecarboxylic acid]", "values": [{"measurement": "cataplexy", "setting": "[2]; day 8, p=0.044", "result": "decreases cataplexy significantly"}, {"measurement": "cataplexy", "setting": "[2]; day 15, p=0.010", "result": "decreases cataplexy significantly"}, {"measurement": "wakefulness, medium long wake bouts", "setting": "[2]; p=0.01, two-way ANOVA with post hoc Dunnett", "result": "significant decrease of medium long wake bouts"}]}
{"smiles": "O=C(O)/C=C1\\CCCc2cc(-c3ccccc3)ccc2C1O", "note": "(stereo not drawn) [Ph-HTBA]", "values": [{"measurement": "treatment effect on sleep/wake parameters and cataplexy episodes", "setting": "[3]", "result": "overall statistical significant effect"}]}
{"smiles": "O=C(O)C1=CC(O)CC1", "note": "(stereo not drawn) [^3H-HOCPCA]", "values": [{"measurement": "3H-HOCPCA binding levels in brain slices", "setting": "CaMK2a [4]", "result": "Increased Binding"}, {"measurement": "3H-HOCPCA binding to mutated CaMK2a compared to wild-type", "setting": "rat CaMK2a", "result": "completely abolished binding"}]}
{"smiles": "NCC(CC(=O)O)c1ccc(Cl)cc1", "note": "(stereo not drawn) [baclofen]", "values": [{"measurement": "efficacy on narcolepsy symptoms", "setting": "[5]", "result": "has efficacy on narcolepsy symptoms"}]}
